Laboratory results as given in patent US20200399238A1, “THERAPEUTIC AURONES” (MIDDLE TENNESSEE STATE UNIVERSITY, priority 2016, published 2020).

Legend:
[1] = tested on: Cryptococcus neoformans (Cn); experiment: CLSI micro-dilution inhibition / MIC, Cryptococcus neoformans; format: cell-based; settings: running text b175, read-out: MIC against Cryptococcus neoformans
Procedure: C. neoformans (strain 1199s) was prepared following CLSI guidelines for the organism (CLSI, Reference Method for Broth Dilution Antifungal Susceptibility Testing of Yeasts, Approved Standard-Third. Edition, Clinical Laboratory Standards Institute, Wayne, Pa., 2008).
The A27-M2 CLSI standard micro-dilution method was used to screen an aurone library (MTSU Department of Chemistry) for inhibition of Cryptococcus neoformans (Cn). Each aurone was screened in triplicate. […] Toxicity assays were conducted on human THP1 macrophages and L6 rat fibroblasts.
The inhibition of Cn strains and C. gattii strains by Aurone 9051 (also referred to as “Aurone X”) was characterized in different medias (including RPMI 1640 (Standard), RPMI 1640+MOPS, Asparagine media, minimal media, or yeast extract peptone dextrose (YPD) media), against other serotypes and strains, and at different cell concentrations. Synergy of the compounds with current drugs was characterized, and a growth curve experiment was conducted.

iNOS = experiment: Western blot, iNOS expression, RAW 264.7; settings: LPS-stimulated RAW264.7, 24 h
Procedure: U0126 is a compound that inhibits MEK1/2 and was used as positive control for ERK phosphorylation inhibition (Hotokezaka, Sakai et al. 2002). Cells were lysed with radio-immunoprecipitation assay (RIPA) lysis buffer that contained a protease and phosphatase inhibitor cocktail. Cell lysates were then tested for protein concentration using a BCA protein assay and diluted with RIPA lysis buffer to normalize protein concentration in all samples. Lysates were mixed with sample loading buffer containing bromophenol blue, glycerol, SDS, and 2-mercaptoethanol. The separated proteins were then transferred onto a nitrocellulose membrane and blocked with 5% BSA in IX Tris-buffered saline with 0.1% Tween-20 for 1 h. The blots were incubated with primary antibodies at 4° C. overnight followed by incubation with HRP-conjugated secondary antibodies for 2 h at 22° C. The membranes were developed by addition of ECL substrate and images were collected with a ChemiDoc XRS+ system chemiluminescence imager (Bio-Rad, Hercules, Calif., USA). Western blot band intensity was quantified using Image Lab software (Bio-Rad, Hercules, Calif., USA). […]

p65 (NF-κB) = experiment: Indirect immunofluorescence for NF-κB nuclear translocation, THP-1; format: cell-based, human; settings: pre-treatment with 50 aurone 1; THP-1, LPS 30 min
Text: Bay 11-7082 is a compound that inhibits LPS-induced activation of IKKα/β, thereby suppressing downstream IκBα phosphorylation/degradation and p65 nuclear translocation and was used as a positive control (Catalan, Fernandez-Castillejo et al. 2012). Treated cells were fixed, permeabilized, blocked, and stained with p65 (NF-κB) primary antibody, Dylight 488 conjugated secondary antibody, and Hoechst 33342 dye, sequentially. The Hoechst and DyLight fluorophores detect changes in nuclear morphology (blue fluorescence) and NF-κB distribution (green fluorescence), respectively. Nuclear Translocation Bioapplication software on the Arrayscan VTI reader was used for image acquisition and data analysis (Thermo Fisher Scientific, Waltham, Mass., USA). For each well, at least 400 cells were automatically acquired and analyzed. The translocation index was calculated by measuring the average intensity difference of NF-κB between the identified cytoplasmic region and nuclear region.

NO production = experiment: NO assay (Griess, nitrite), RAW 264.7; format: cell-based, murine; settings: LPS-stimulated RAW264.7, 24 h
Procedure: Nitrite concentration in culture media of cells exposed to the indicated treatments was determined as an estimate of NO production with Griess reagent using a nitrate/nitrite colorimetric assay kit (Cayman Chemical Company, USA) according to the manufacturer's protocol.

TNFα = experiment: Cytokine response by ELISA, TNFα; format: cell-based, human
Procedure: Dexamethasone is a synthetic glucocorticoid that suppresses LPS-induced pro-inflammatory cytokine expression and was used as a control (Abraham, Lawrence et al. 2006). Supernatants were collected for human cytokine ELISAs and the manufacturer's protocol was followed to assess the cytokine response. Cells remaining after the supernatant collection were tested for relative viability by Alamar Blue cytotoxicity assay as previously described.

TNFα mRNA = experiment: Quantitative RT-PCR of TNF-α transcription, THP-1; format: cell-based, human; settings: 80 μM pre-treatment, LPS 4 h, differentiated THP-1
Procedure: Transcription of TNF-α (NM 000594) and beta-2-microglobin, 132M (NM 004048), in 2.5×10^5 PMA-differentiated THP1 cells was investigated in cells without treatment, stimulated with […] Salmonella LPS, or pretreated for 1 hour with 1 μM dexamethasone or 80 μM aurone 1 followed by 4 hours of incubation with 20 ng/ml LPS. Total RNA was purified after 4 hours of LPS stimulation using the Maxwell 16 LEV simplyRNA Tissue Kit (Promega, WI, USA) per manufacturer's instructions (Jeffries, Kiss et al. 2014). Total RNA concentrations and the 260/280 nm ratios of each RNA sample were assessed using a NanoDrop 2000 UV-Vis spectrophotometer (Thermo Fisher Scientific, MA, USA). SYBR® FAST One-step qRT-PCR (KAPA Biosystems, MA, USA) was used to examine gene transcription after reaction optimization.
QuantiTect® Primer Assay TNF (QT01079561) and B2M (Q300088935) primer (Qiagen, CA, USA) optimization studies, including melt curve analyses to confirm primer specificity and efficiency, were conducted to find appropriate running conditions (Fajardy, Moitrot et al. 2009). Briefly, the optimized conditions were 1 ng of total RNA added to 20 μl of reaction including 150 nM of forward and reverse primers. […] The fold change was calculated by using 2^−ΔΔct normalized to LPS alone (Schmittgen and Livak 2008).

Row | Compound | MIC [1] [µM] | reduction in iNOS levels (iNOS; 50 μM) [%] | reduction in iNOS levels (iNOS; 100 μM) [%] | cytoplasmic-to-nuclear translocation of p65 (p65 (NF-κB)) | production of NO (nitrite in supernatants) (NO production) | inhibition at 20 µM (TNFα; Homo sapiens, LPS-stimulated THP-1 cells, 20 μM, mean ± SD, read-out: Average % TNF-α Inhibition) [%] | suppression of TNFα expression (TNFα; LPS-stimulated THP-1, ELISA, FIG. 9A, concentration not printed with the value (20-80 μM tested)) [%] | reduction of TNFα mRNA levels (TNFα mRNA) [%]
1 | COc1ccc(/C=C2\Oc3c(ccc(O)c3O)C2=O)cc1O [Aurone 1009, (Z)-6,7-dihydroxy-2-(3-hydroxy-4-methoxybenzylidene)benzofuran-3(2H)-one] | 30 |  |  |  |  |  |  | 
2 | O=C1/C(=C/c2ccc(CO)o2)Oc2ccccc21 [aurone 1] |  | 31.7 | 57.5 | capable of blocking cytoplasmic-to-nuclear translocation of p65 | significantly reduced | 25.3 ± 6.1 | 93.8 | 49
